Results published in PubChem BioAssay (NCI).
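The concentration for 50% growth inhibition is given as GI50. TGI: total growth inhibition.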

Key:
Assay in all cases: NCI anticancer screen, dose series, 384-well format; in the data active = GI50 below about 0.43 µM; inactive = the rest
[1] = test system: CAKI-1 renal
[2] = test system: NCI-H23 lung
[3] = test system: A549 NSCLC
[4] = test system: COLO 205 colon
[5] = test system: SW-620 colon
[6] = test system: HT29 colon
[7] = test system: CCRF-CEM leukemia
[8] = test system: NCI-H226 lung
[9] = test system: UACC-62 melanoma
[10] = test system: NCI-H522 lung
[11] = test system: MCF7 breast
[12] = test system: HCT-116 colon
[13] = test system: OVCAR-5 ovarian
[14] = test system: SR leukemia
[15] = test system: HCT-15 colon
[16] = test system: MOLT-4 leukemia
[17] = test system: RXF 393 renal
[18] = test system: ACHN renal
[19] = test system: UACC-257 melanoma
[20] = test system: SF-295 CNS
[21] = test system: EKVX NSCLC
[22] = test system: UO-31 renal
[23] = test system: NCI-H460 NSCLC
[24] = test system: LOX IMVI melanoma
[25] = test system: PC-3 prostate
[26] = test system: KM12 colon
[27] = test system: MALME-3M melanoma
[28] = test system: HCC-2998 colon
[29] = test system: U251 glioblastoma
[30] = test system: DU-145 prostate
[31] = test system: T-47D breast
[32] = test system: MDA-MB-468 breast
[33] = test system: TK-10 renal
[34] = test system: BT-549 breast
[35] = test system: IGROV1 ovarian
[36] = test system: SK-MEL-28 melanoma
[37] = test system: OVCAR-8 ovarian
[38] = test system: SNB-75 CNS
[39] = test system: K-562 leukemia
[40] = test system: NCI/ADR-RES ovarian
[41] = test system: SF-268 CNS
[42] = test system: SK-MEL-5 melanoma
[43] = test system: SK-OV-3 ovarian
[44] = test system: OVCAR-4 ovarian
[45] = test system: RPMI-8226 leukemia
[46] = test system: HOP-62 NSCLC
[47] = test system: 786-0 renal

Cc1cc(Nc2cc(N)ncn2)c(=O)n2c1C(=O)NC21CCCCC1
inactive: GI50 [1] > 100 µM | GI50 [2] > 100 µM | GI50 [3] > 100 µM | GI50 [4] > 100 µM | GI50 [5] > 100 µM | GI50 [6] > 100 µM | GI50 [7] > 100 µM | GI50 [8] > 100 µM | GI50 [9] > 100 µM | GI50 [10] > 100 µM | GI50 [11] > 100 µM | GI50 [12] > 100 µM | GI50 [13] > 100 µM | GI50 [14] > 69.7 µM | GI50 [15] > 100 µM | GI50 [16] > 100 µM | GI50 [17] > 100 µM | GI50 [18] > 100 µM | GI50 [19] > 100 µM | GI50 [20] > 100 µM | GI50 [21] > 100 µM | GI50 [22] > 100 µM | GI50 [23] > 100 µM | GI50 [24] > 100 µM | GI50 [25] > 100 µM | GI50 [26] > 100 µM | GI50 [27] > 100 µM | GI50 [28] > 100 µM | GI50 [29] > 100 µM | GI50 [30] > 100 µM | GI50 [31] > 100 µM | GI50 [32] > 100 µM | GI50 [33] > 100 µM | GI50 [34] > 76.9 µM | GI50 [35] > 100 µM | GI50 [36] > 100 µM | GI50 [37] > 100 µM | GI50 [38] > 100 µM | GI50 [39] > 100 µM | GI50 [40] > 100 µM | GI50 [41] > 100 µM | GI50 [42] > 100 µM | GI50 [43] > 100 µM | GI50 [44] > 100 µM | GI50 [45] > 62.6 µM | GI50 [46] > 100 µM | GI50 [47] > 100 µM
> 100 µM: TGI [1] | TGI [2] | TGI [3] | TGI [4] | TGI [5] | TGI [6] | TGI [7] | TGI [8] | TGI [9] | TGI [10] | TGI [11] | TGI [12] | TGI [13] | TGI [14] | TGI [15] | TGI [16] | TGI [17] | TGI [18] | TGI [19] | TGI [20] | TGI [21] | TGI [22] | TGI [23] | TGI [24] | TGI [25] | TGI [26] | TGI [27] | TGI [28] | TGI [29] | TGI [30] | TGI [31] | TGI [32] | TGI [33] | TGI [34] | TGI [35] | TGI [36] | TGI [37] | TGI [38] | TGI [39] | TGI [40] | TGI [41] | TGI [42] | TGI [43] | TGI [44] | TGI [45] | TGI [46] | TGI [47]
